Reference: the supplement of paper PMC11061612

Tests used:
[1] = tested on: KMOE-2 (Acute Myeloid Leukemia); assay: combination Emax (second highest fraction inhibited in the dose matrix, 72 h); higher = more inhibition; extreme values may be limits of the assay
Summary of the method: (§1)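 Bliss excess equals the observed combination effect minus the expected value EA + EB − EA·EB, where EA and EB are the effects of each agent alone. Combination Emax is the second-highest inhibition within the matrix. Inhibition was scaled from CellTiter-Glo 2.0 luminescence, with 0 set by vehicle wells and 1 by blank wells, after 72 hours of two-drug dosing of cells plated in 1536-well plates.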

[2] = tested on: KYSE-450 (Esophageal Squamous Cell Carcinoma); assay: as above
Summary of the method: as §1

[3] = tested on: NCI-H1915 (Non-Small Cell Lung Carcinoma); assay: as above
Summary of the method: as §1

[4] = tested on: KARPAS-299 (T-Cell Non-Hodgkin's Lymphoma); assay: as above
Summary of the method: as §1

[5] = tested on: EFM-19 (Breast Carcinoma); assay: as above
Summary of the method: as §1

[6] = tested on: SU8686 (Pancreatic Carcinoma); assay: as above
Summary of the method: as §1

[7] = tested on: C-4-I (Cervical Carcinoma); assay: as above
Summary of the method: as §1

[8] = tested on: RF-48 (B-Cell Non-Hodgkin's Lymphoma); assay: as above
Summary of the method: as §1

[9] = tested on: NEC8 (Other Solid Carcinomas); assay: as above
Summary of the method: as §1

[10] = tested on: TK10 (Kidney Carcinoma); assay: as above
Summary of the method: as §1

[11] = tested on: OVCAR-4 (Ovarian Carcinoma); assay: as above
Summary of the method: as §1

[12] = tested on: TE-1 (Esophageal Squamous Cell Carcinoma); assay: as above
Summary of the method: as §1

[13] = tested on: SCC-15 (Oral Cavity Carcinoma); assay: as above
Summary of the method: as §1

[14] = tested on: UACC-62 (Melanoma); assay: as above
Summary of the method: as §1

[15] = tested on: Ca9-22 (Head and Neck Carcinoma); assay: as above
Summary of the method: as §1

[16] = tested on: ACHN (Kidney Carcinoma); assay: as above
Summary of the method: as §1

[17] = tested on: VA-ES-BJ (Other Solid Carcinomas); assay: as above
Summary of the method: as §1

[18] = tested on: AMO-1 (Plasma Cell Myeloma); assay: as above
Summary of the method: as §1

[19] = tested on: BT-549 (Breast Carcinoma); assay: as above
Summary of the method: as §1

[20] = tested on: EW-24 (Ewing's Sarcoma); assay: Bliss excess, mean over the matrix (fraction); higher = more synergy
Summary of the method: as §1

| SMILES | combination Emax [1] | combination Emax [2] | combination Emax [3] | combination Emax [4] | combination Emax [5] | combination Emax [6] | combination Emax [7] | combination Emax [8] | combination Emax [9] | combination Emax [10] | combination Emax [11] | combination Emax [12] | combination Emax [13] | combination Emax [14] | combination Emax [15] | combination Emax [16] | combination Emax [17] | combination Emax [18] | combination Emax [19] | Bliss excess [20] |
| --- | --- | --- | --- | --- | --- | --- | --- | --- | --- | --- | --- | --- | --- | --- | --- | --- | --- | --- | --- | --- |
| NC1(C(=O)N[C@@H](CCO)c2ccc(Cl)cc2)CCN(c2ncnc3[nH]ccc23)CC1 [Capivasertib] + Cn1cnc2c(F)c(Nc3ccc(Br)cc3Cl)c(C(=O)NOCCO)cc21 [Selumetinib] (first compound max 10 µM, 7x7, partner max 10 µM) | 1 | 0.547 | 0.791 | 0.587 | 0.477 | 0.26 | 0.537 | 0.456 | 0.152 | 0.534 | 0.338 | 0.49 | 0.524 | 0.908 | 0.554 | 0.49 | 0.347 | 0.801 | 0.41 | -0.0223 |
| COc1nnc2ccc(N3CCC(c4ccc(OCCN5CCN(C)C(=O)[C@H]5C)cc4)CC3)nn12 [AZD5153] + CCN(CCO)CCCOc1ccc2c(Nc3cc(CC(=O)Nc4cccc(F)c4)[nH]n3)ncnc2c1 [AZD2811] (first compound max 1 µM, 7x7, partner max 1 µM) | 0.901 | 0.358 | 0.486 | 0.847 | 0.366 | 0.0898 | 0.565 | 0.418 | 0.826 | 0.564 | 0.467 | 0.49 | 0.41 | 0.478 | 0.592 | 0.562 | 0.579 | 0.912 | 0.593 | -0.0598 |
| NC1(C(=O)N[C@@H](CCO)c2ccc(Cl)cc2)CCN(c2ncnc3[nH]ccc23)CC1 [Capivasertib] + CC(C)n1c(=O)n(C)c2cnc3cc(F)c(-c4ccc(OCCCN5CCCCC5)nc4)cc3c21 [AZD1390] (first compound max 10 µM, 7x7, partner max 0.3 µM) | 0.33 | 0.306 | 0.287 | 0.376 | 0.469 | 0.113 | 0.237 | 0.44 | 0.144 | 0.411 | 0.162 | 0.153 | 0.227 | 0.572 | 0.286 | 0.185 | 0.307 | 0.633 | 0.353 | -0.218 |
| NC1(C(=O)N[C@@H](CCO)c2ccc(Cl)cc2)CCN(c2ncnc3[nH]ccc23)CC1 [Capivasertib] + CCN(CCO)CCCOc1ccc2c(Nc3cc(CC(=O)Nc4cccc(F)c4)[nH]n3)ncnc2c1 [AZD2811] (first compound max 10 µM, 7x7, partner max 1 µM) | 0.489 | 0.414 | 0.334 | 0.337 | 0.586 | 0.121 | 0.402 | 0.534 | 0.199 | 0.403 | 0.323 | 0.383 | 0.334 | 0.556 | 0.445 | 0.355 | 0.49 | 0.769 | 0.435 | -0.0029 |
| CC1(C)CCC(CN2CCN(c3ccc(C(=O)NS(=O)(=O)c4ccc(NCC5CCOCC5)c([N+](=O)[O-])c4)c(Oc4cnc5[nH]ccc5c4)c3)CC2)=C(c2ccc(Cl)cc2)C1 [Venetoclax] + C=CCn1c(=O)c2cnc(Nc3ccc(N4CCN(C)CC4)cc3)nc2n1-c1cccc(C(C)(C)O)n1 [AZD1775] (first compound max 1 µM, partner max 1 µM) | 0.966 | 0.614 | 0.634 | 0.951 | 0.489 | 0.107 | 0.872 | 0.667 | 0.42 | 0.591 | 0.588 | 0.603 | 0.327 | 0.578 | 0.903 | 0.96 | 0.503 | 0.921 | 0.778 | 0.0351 |
| CCc1c2c(nc3ccc(O)cc13)-c1cc3c(c(=O)n1C2)COC(=O)[C@]3(O)CC [SN-38] + CN(C)CCCOc1ccc(-c2ccc3ncc4c(c3c2)n(C2CCOCC2)c(=O)n4C)cn1 [AZD0156] (first compound max 0.3 µM, 7x7, partner max 1 µM) | 0.945 | 0.767 | 0.609 | 0.924 | 0.482 | 0.497 | 0.932 | 0.801 | 0.99 | 0.409 | 0.187 | 0.522 | 0.709 | 0.891 | 0.914 | 0.951 | 0.875 | 0.9 | 0.423 | -0.0189 |
